Consider 23 compounds from US20110020279A1 (priority 2010, published 2011).

“Also recorded” adds a separate entry of the source.

Data set [1] deals with rabies virus. The conditions noted are these: in vivo; cited from earlier work.
Data set [2] concerns vesicular stomatitis virus. To be noted: cited from earlier work.
The conditions of data set [3]: in vivo, iv; cited from earlier work.
Data set [4] has as its system rabies virus. To be noted: human, in vivo, cited from earlier work.
The test system of the next data set is poliovirus type 1. To be noted: cited from earlier work.
Data set [5] concerns rabies virus. To be noted: cited from earlier work.
The subject of data set [6] is rabies virus. To be noted: cited from earlier work. The source holds these as a separate data set.
For data set [7] the following is noted: human, in vivo.
The next data set concerns HIV virus. To be noted: cited from earlier work.
In another data set the test system is herpes simplex virus. To be noted: cited from earlier work.
For data set [8] the following is noted: mouse, in vivo; cited from earlier work.
The conditions of data set [9]: in vivo; cited from earlier work.
Data set [10] concerns rabies virus. To be noted: cited from earlier work. The source holds these as a separate data set.
For data set [11] the following is noted: in vivo; cited from earlier work. The source holds these as a separate data set.
The subject of the next data set is activated microglia. The conditions noted are these: cited from earlier work.
Data set [12] has as its system rabies virus. The conditions noted are these: rat, in vivo; cited from earlier work.
The conditions of data set [13]: in vivo; cited from earlier work. This is another data set of the same source.
For data set [14] the following is noted: in vivo; cited from earlier work. This is another data set of the same source.
The subject of data set [15] is LPS-activated macrophages. To be noted: cited from earlier work.
For data set [16] the following is noted: in vivo.
The subject of data set [17] is MCF-7 human breast cancer cells. The conditions noted are these: cited from earlier work.
On the set-up of data set [18]: species or system humans. To be noted: human, in vivo.

For `CNC1(c2ccccc2Cl)CCCCC1=O` (stereo not shown) [ketamine], the “rabies virus infection/spread in rat brain” value in the data set with rabies virus [1] was “restricted viral spread; also recorded: reduced”. Also, the “replication of vesicular stomatitis virus” value in data set [2] is given as “doesn't affect replication”. Besides, the treatment of hiccup result in [3] is “effectively”. In addition, the “outcome of rabies therapy with ketamine and induced coma” value in the data set with rabies virus [4] is “failed to save the patient's life”. For the same compound, in the data set on poliovirus type 1, the “replication of poliovirus type 1” value is reported as “doesn't affect replication”. In addition, in the data set on rabies virus [5], the “rabies virus infection in primary neuron cultures” value is given as “inhibited”; the “reduction in the levels of rabies virus mRNAs relative to untreated neurons” value was 5- to 11 fold; the “viral nucleoprotein and glycoprotein syntheses” value is listed as “inhibited”. Also, the “ketamine therapy of rabies in experimental studies” value in the data set on rabies virus [6] is “poor and disappointing”. In addition, the initial cardiovascular effects result in data set [7] was “tachycardia and elevated blood pressure”. The “replication of HIV virus” value in the data set with HIV virus was “doesn't affect replication”. Also, the “replication of herpes simplex virus” value with herpes simplex virus is recorded as “doesn't affect replication”.
On to `S` [hydrogen sulfide], for which, in data set [8], the blood pressure entry is on record as “did not significantly decrease” and the health consequences afterwards entry is “no negative health consequences”. In [9], the “borderline concentration for eye irritation” value is on record as 10-20 ppm; the “concentration at which olfactory nerve is paralyzed after a few inhalations” value is listed as 100-150 ppm; the “concentration causing immediate collapse with loss of breathing” value was “over 1000 ppm”; the “concentration causing strong CNS stimulation, rapid breathing, loss of breathing” value is recorded as 530-1000 ppm. In addition, in [9], the “concentration leading to eye damage” value is 50-100 ppm, the “concentration leading to pulmonary edema with possibility of death” value is listed as 320-530 ppm, the “concentration with exposure limit of 8 hours per day” value was “Less than 10 ppm” and the “lethal concentration for 50% of humans (LC50)” value is recorded as 800 ppm.
With `CC[C@]1(O)C[C@@H]2CN(CCc3c([nH]c4ccccc34)[C@@](C(=O)OC)(c3cc4c(cc3OC)N(C)[C@H]3[C@@](O)(C(=O)OC)[C@H](OC(C)=O)[C@]5(CC)C=CCN6CC[C@]43[C@@H]65)C2)C1` [vinblastine], in the data set on rabies virus [10], the “rabies virus transport in neurites” value is on record as “blocked”.
Regarding interferon-Alfa, the “outcome of therapy, combined intravenous and intrathecal administration” value in the data set on rabies virus [4] (iv) is given as “unsuccessful”.
As for NPH (isophane) insulin, in data set [11], the “Effective duration of action” value was 10 to 16 h, the Maximum duration is 14 to 18 h, the “Onset of Action” value was 2 to 4 h and the “Peak Action” value was 6 to 10 h.
In the case of regular (soluble) insulin, in data set [11], the “Effective duration of action” value is 3 to 6 h, the Maximum duration was 6 to 8 h, the “Onset of Action” value is recorded as “½-1” and the “Peak Action” value is 2 to 3 h.
Consider insulin glulisine, for which, in data set [11], the “Effective duration of action” value was 3 to 4 h, the Maximum duration is 4 to 6 h, the “Onset of Action” value was “¼-½” and the “Peak Action” value is listed as “½-1¼”.
For the compound `NC(=O)c1ncn([C@@H]2O[C@H](CO)[C@@H](O)[C@H]2O)n1` [ribavirin], in the data set on rabies virus [4] (iv), the “outcome of antiviral therapy, intravenous” value is reported as “unsuccessful”; the “outcome of therapy, combined intravenous and intrathecal administration” value was “unsuccessful”.
`Oc1ccc(/C=C/c2cc(O)cc(O)c2)cc1` [Resveratol]: the “NO and TNF-alpha production by activated microglia” value (“NO and TNF-alpha production” for short) with activated microglia is “inhibits”.
Take insulin aspart: in data set [11], the “Effective duration of action” value was 3 to 4 h, the Maximum duration is 4 to 6 h, the “Onset of Action” value is recorded as “¼-½” and the “Peak Action” value was “½-1¼”.
Consider `C[C@]12CC[C@@H]3c4ccc(O)cc4CC[C@H]3[C@@H]1C[C@@H](O)[C@@H]2O` [Estriol], for which the “NO and TNF-alpha production” value with activated microglia is on record as “inhibits”.
Consider `C[C@]12CCC(=O)C=C1CC[C@@H]1[C@@H]2[C@@H](O)C[C@@]2(C)[C@H]1CC[C@]2(O)C(=O)CO` [cortisol], for which the “release of TNF-alpha from LPS-treated microglial cells” value in the data set with activated microglia is listed as “inhibits”.
Take `COc1cc2c(c(OC)c1OC)-c1ccc(OC)c(=O)cc1[C@@H](NC(C)=O)CC2` [colchicine]: the “rabies virus transport in neurites” value with rabies virus [10] is “blocked”. For the same compound, the “day post-infection until which no fluorescent foci could be detected” value in the data set on rabies virus [12] was 3 days.
`C[C@]12N[C@H](Cc3ccccc31)c1ccccc12` [MK-801]: in the data set on rabies virus [5], the “rabies virus infection in primary neuron cultures” value is “inhibited”.
With insulin lispro [IInsulin lispro], in data set [11], the “Effective duration of action” value was 3 to 4 h, the Maximum duration was 4 to 6 h, the “Onset of Action” value is “¼-½” and the “Peak Action” value was “½-1¼”.
biopterin: in data set [13], the “post recovery paresis symptoms” value was “relieved”.
On to `CC(=O)[C@H]1CC[C@H]2[C@@H]3CCC4=CC(=O)CC[C@]4(C)[C@H]3CC[C@]12C` [progesterone], for which, in the data set with activated microglia, the “NO and TNF-alpha production” value is “inhibits”.
Regarding `CC(C)c1cccc(C(C)C)c1O` [propofol], in data set [14], the “time to waking when not administered continuously” value is 5 to 10 min. In addition, in data set [15], the “LPS-induced NO biosynthesis” value is on record as “significantly inhibited”; the “levels of LPS-enhanced TNF-alpha, IL-1 beta, and IL-6 proteins” value is recorded as “significantly reduced”.
On to insulin detemir, for which, in data set [11], the “Effective duration of action” value is 14 h, the Maximum duration was approximately 20 h, the “Onset of Action” value is 3 to 4 h and the “Peak Action” value was 6 to 8 h.
As to `COc1cc(/C=C/C(=O)CC(=O)/C=C/c2ccc(O)c(OC)c2)ccc1O` [curcumin], in the data set with activated microglia, the “mRNA and protein levels of inducible nitric oxide synthase (iNOS)” value was “suppresses”.
Consider insulin glargine, for which, in data set [11], the “Effective duration of action” value was 18 to 20 h, the Maximum duration was 20 to 24 h, the “Onset of Action” value was 3 to 4 h and the “Peak Action” value was 8 to 16 h.
insulin: in data set [16], the hypoglycemic effects result is listed as “did not develop the hypoglycemic effects”. In data set [17], the “increase of the cytotoxic effect of methotrexate by insulin” value is “up to 10,000 fold”. In addition, the “memory, attention, functioning, mood” value in data set [18] was “improves memory, attention, and functioning”.
Regarding cytochalasin, in the data set on rabies virus [10], the “rabies virus transport in neurites” value was “blocked”.
